Among the data in patent US8148391B2 (Cephalon, Inc., priority 2006, dated 2012) are IC50 values, retold here.

As a reminder, the IC50 is the concentration needed to halve the response being measured.

A value given as a limit tells only on which side of the number the result lay.

The target of test [1] is T1, c-Met (cytoplasmic domain) (Homo sapiens, UniProt P08581).
T1 construct: 10 ng/mL c-Met (cytoplasmic domain, Invitrogen Corporation #PV3143); purchased Invitrogen Corporation PV3143
Briefly: c-Met Kinase Assay (same methods as for ALK, with modifications). It counts as biochemical. The conditions noted are these: 1 μM ATP (Km level), 10 ng/mL c-Met; read-out: cMet Activity (c-Met kinase inhibition, IC50 class). In short, it runs like this: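 Steps: coat wells with PLC-γ (10 μg/mL, Tris-buffered saline); add 10 ng/mL c-Met cytoplasmic domain to initiate; incubate 15 min, 37° C; detect phosphoproduct via Eu-N1 PT66 antibody.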

Test [2] deals with T2, baculovirus-expressed ALK (Homo sapiens, UniProt Q9UM73).
T2 construct: host or cells: baculovirus expression system
T2 sequence (Q9UM73 19-1620): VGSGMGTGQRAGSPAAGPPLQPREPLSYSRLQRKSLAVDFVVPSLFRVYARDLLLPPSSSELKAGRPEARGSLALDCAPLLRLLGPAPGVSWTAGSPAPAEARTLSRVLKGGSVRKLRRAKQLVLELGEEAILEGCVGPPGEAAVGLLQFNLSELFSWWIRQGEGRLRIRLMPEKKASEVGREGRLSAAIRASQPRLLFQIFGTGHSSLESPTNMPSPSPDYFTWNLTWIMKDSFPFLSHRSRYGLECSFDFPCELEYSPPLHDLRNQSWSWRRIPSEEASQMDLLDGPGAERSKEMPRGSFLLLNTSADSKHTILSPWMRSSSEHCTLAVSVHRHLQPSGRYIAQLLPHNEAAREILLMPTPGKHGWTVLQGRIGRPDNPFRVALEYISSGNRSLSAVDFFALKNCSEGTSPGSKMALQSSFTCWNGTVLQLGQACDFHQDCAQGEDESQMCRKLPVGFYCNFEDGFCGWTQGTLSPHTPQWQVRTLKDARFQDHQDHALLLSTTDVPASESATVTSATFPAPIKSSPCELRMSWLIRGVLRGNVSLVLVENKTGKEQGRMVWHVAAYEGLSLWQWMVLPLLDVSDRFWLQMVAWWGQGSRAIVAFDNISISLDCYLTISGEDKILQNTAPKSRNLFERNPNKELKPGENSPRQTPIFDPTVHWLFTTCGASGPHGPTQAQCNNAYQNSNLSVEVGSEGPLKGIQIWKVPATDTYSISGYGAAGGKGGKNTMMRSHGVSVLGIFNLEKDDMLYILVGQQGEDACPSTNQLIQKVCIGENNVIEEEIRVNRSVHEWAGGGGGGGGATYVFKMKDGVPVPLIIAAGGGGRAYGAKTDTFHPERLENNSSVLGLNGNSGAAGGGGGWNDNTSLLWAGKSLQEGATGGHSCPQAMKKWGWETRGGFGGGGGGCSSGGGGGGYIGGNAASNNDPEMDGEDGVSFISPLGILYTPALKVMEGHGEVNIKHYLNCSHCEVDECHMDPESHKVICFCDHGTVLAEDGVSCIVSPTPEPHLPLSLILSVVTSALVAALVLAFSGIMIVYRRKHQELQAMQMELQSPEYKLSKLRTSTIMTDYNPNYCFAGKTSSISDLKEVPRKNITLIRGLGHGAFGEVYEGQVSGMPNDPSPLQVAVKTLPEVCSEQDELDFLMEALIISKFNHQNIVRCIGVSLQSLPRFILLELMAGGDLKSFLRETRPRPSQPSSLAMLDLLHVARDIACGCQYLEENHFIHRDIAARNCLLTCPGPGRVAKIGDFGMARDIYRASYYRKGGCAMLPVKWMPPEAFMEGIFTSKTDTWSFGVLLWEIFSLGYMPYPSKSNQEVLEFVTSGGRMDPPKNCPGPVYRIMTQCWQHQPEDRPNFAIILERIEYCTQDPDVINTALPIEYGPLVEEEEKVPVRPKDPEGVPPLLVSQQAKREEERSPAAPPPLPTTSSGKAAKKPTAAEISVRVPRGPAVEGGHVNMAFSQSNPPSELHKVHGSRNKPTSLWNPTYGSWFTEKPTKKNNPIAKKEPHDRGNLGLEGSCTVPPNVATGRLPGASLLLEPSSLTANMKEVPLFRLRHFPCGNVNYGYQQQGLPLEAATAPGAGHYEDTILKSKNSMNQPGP
The experiment in a line: ALK Kinase Assay (ELISA-type, time-resolved fluorescence). It counts as biochemical. Particulars: 1 μM ATP (Km level), 30 ng/ml ALK, 37° C., 15 minutes; read-out: ALK Activity (ALK kinase inhibition, IC50 class). The gist of the method: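 Wells were coated with phospholipase C-γ at 10 μg/mL in Tris-buffered saline. Adding 30 ng/ml enzyme started the reaction, which ran at 37° C for 15 minutes before Eu-N1 PT66 antibody detection. Percent inhibition versus log10 concentration gave IC50 by variable-slope fit.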
In general terms: ELISA stands for enzyme-linked immunosorbent assay.

T1 sequence (P08581 956-1390 limits assumed): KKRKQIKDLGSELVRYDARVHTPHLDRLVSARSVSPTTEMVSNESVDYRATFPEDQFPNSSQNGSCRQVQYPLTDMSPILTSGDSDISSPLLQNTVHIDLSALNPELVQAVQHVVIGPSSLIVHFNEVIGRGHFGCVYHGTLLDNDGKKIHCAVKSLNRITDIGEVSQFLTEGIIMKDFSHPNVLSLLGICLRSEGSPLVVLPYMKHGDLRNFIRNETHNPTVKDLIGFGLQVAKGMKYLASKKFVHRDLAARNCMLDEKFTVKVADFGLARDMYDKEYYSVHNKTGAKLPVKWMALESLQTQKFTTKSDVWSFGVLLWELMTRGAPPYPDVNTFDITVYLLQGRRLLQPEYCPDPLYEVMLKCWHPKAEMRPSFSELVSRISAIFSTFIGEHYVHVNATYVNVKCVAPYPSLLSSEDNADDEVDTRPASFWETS

Consider `COCCNC1CCc2cc(Nc3ncc(Cl)c(Nc4ccccc4S(=O)(=O)N(C)C)n3)c(OC)cc2CC1` (centres unmarked) [Example 1083, 2-{5-Chloro-2-[3-methoxy-7-(2-methoxy-ethylamino)-6,7,8,9-tetrahydro-5H-benzocyclohepten-2-ylamino]-pyrimidin-4-ylamino}-N,N-dimethyl-benzenesulfonamide], for which the IC50 is 1 to 10 µM in test [1] and under 0.1 µM in test [2].
As to `COCCNC1CCc2cc(Nc3ncc(Cl)c(Nc4ccccc4S(=O)(=O)C(C)C)n3)c(OC)cc2CC1` (centres unmarked) [Example 1084, 5-Chloro-N*2*-[3-methoxy-7-(2-methoxy-ethylamino)-6,7,8,9-tetrahydro-5H-benzocyclohepten-2-yl]-N*4*-[2-(propane-2-sulfonyl)-phenyl]-pyrimidine-2,4-diamine], the IC50 in test [1] is 1 to 10 µM; in test [2] it was under 0.1 µM.
For `COCCNC1CCc2cc(Nc3ncc(Cl)c(Nc4ccccc4-n4cccn4)n3)c(OC)cc2CC1` (centres unmarked) [Example 1085, 5-Chloro-N*2*-[3-methoxy-7-(2-methoxy-ethylamino)-6,7,8,9-tetrahydro-5H-benzocyclohepten-2-yl]-N*4*-(2-pyrazol-1-yl-phenyl)-pyrimidine-2,4-diamine], in that order: over 10 µM and under 0.1 µM.
For `CNC(=O)c1ccccc1Nc1nc(Nc2cc3c(cc2OC)CCC(NCCOC)CC3)ncc1Cl` (centres unmarked) [Example 1086, 2-{5-Chloro-2-[3-methoxy-7-(2-methoxy-ethylamino)-6,7,8,9-tetrahydro-5H-benzocyclohepten-2-ylamino]-pyrimidin-4-ylamino}-N-methyl-benzamide], in that order: 0.1 to 1 µM and under 0.1 µM.
For `COc1cc2c(cc1Nc1ncc(Cl)c(Nc3ccccc3S(=O)(=O)N3CCCC3)n1)CCC(NCCO)CC2` (centres unmarked) [Example 1087, 2-(2-{5-Chloro-4-[2-(pyrrolidine-1-sulfonyl)-phenylamino]-pyrimidin-2-ylamino}-3-methoxy-6,7,8,9-tetrahydro-5H-benzocyclohepten-7-ylamino)-ethanol], in that order: 1 to 10 µM and under 0.1 µM.
`COc1cc2c(cc1Nc1ncc(Cl)c(Nc3ccccc3S(=O)(=O)N3CCC(O)C3)n1)CCC(NCCO)CC2` (centres unmarked) [Example 1088, 1-(2-{5-Chloro-2-[7-(2-hydroxy-ethylamino)-3-methoxy-6,7,8,9-tetrahydro-5H-benzocyclohepten-2-ylamino]-pyrimidin-4-ylamino}-benzenesulfonyl)-pyrrolidin-3-ol]: the 50% inhibitory concentration (IC50) in test [1] is 1 to 10 µM; in test [2] it was under 0.1 µM.
For `COc1cc2c(cc1Nc1ncc(Cl)c(Nc3ccccc3S(=O)(=O)N(C)C)n1)CCC(NCCO)CC2` (centres unmarked) [Example 1089, 2-{5-Chloro-2-[7-(2-hydroxy-ethylamino)-3-methoxy-6,7,8,9-tetrahydro-5H-benzocyclohepten-2-ylamino]-pyrimidin-4-ylamino}-N,N-dimethyl-benzenesulfonamide], in that order: 1 to 10 µM and under 0.1 µM.
On to `COc1cc2c(cc1Nc1ncc(Cl)c(Nc3ccccc3S(=O)(=O)C(C)C)n1)CCC(NCCO)CC2` (centres unmarked) [Example 1090, 2-(2-{5-Chloro-4-[2-(propane-2-sulfonyl)-phenylamino]-pyrimidin-2-ylamino}-3-methoxy-6,7,8,9-tetrahydro-5H-benzocyclohepten-7-ylamino)-ethanol], for which the IC50 is 1 to 10 µM in test [1] and under 0.1 µM in test [2].
For `COc1cc2c(cc1Nc1ncc(Cl)c(Nc3ccccc3-n3cccn3)n1)CCC(NCCO)CC2` (centres unmarked) [Example 1091, 2-{2-[5-Chloro-4-(2-pyrazol-1-yl-phenylamino)-pyrimidin-2-ylamino]-3-methoxy-6,7,8,9-tetrahydro-5H-benzocyclohepten-7-ylamino}-ethanol], in that order: 1 to 10 µM and under 0.1 µM.
On to `CNC(=O)c1ccccc1Nc1nc(Nc2cc3c(cc2OC)CCC(NCCO)CC3)ncc1Cl` (centres unmarked) [Example 1092, 2-{5-Chloro-2-[7-(2-hydroxy-ethylamino)-3-methoxy-6,7,8,9-tetrahydro-5H-benzocyclohepten-2-ylamino]-pyrimidin-4-ylamino}-N-methyl-benzamide], for which the IC50 in test [1] was over 10 µM; in test [2], under 0.1 µM.
For `COCCOC(=O)c1ccccc1Nc1nc(Nc2cc3c(cc2OC)CCC(NCCO)CC3)ncc1Cl` (centres unmarked) [Example 1093, 2-{5-Chloro-2-[7-(2-hydroxy-ethylamino)-3-methoxy-6,7,8,9-tetrahydro-5H-benzocyclohepten-2-ylamino]-pyrimidin-4-ylamino}-benzoic acid 2-methoxy-ethyl ester], in that order: over 10 µM and under 0.1 µM.
For `COc1cc2c(cc1Nc1ncc(Cl)c(Nc3ccccc3S(=O)(=O)N3CCC(O)C3)n1)CCC(N1CCN(C)CC1)CC2` (centres unmarked) [Example 1098, 1-(2-{5-Chloro-2-[3-methoxy-7-(4-methyl-piperazin-1-yl)-6,7,8,9-tetrahydro-5H-benzocyclohepten-2-ylamino]-pyrimidin-4-ylamino}-benzenesulfonyl)-pyrrolidin-3-ol], in that order: 1 to 10 µM and under 0.1 µM.
For `COc1cc2c(cc1Nc1ncc(Cl)c(Nc3ccccc3S(=O)(=O)N(C)C)n1)CCC(N1CCN(C)CC1)CC2` (centres unmarked) [Example 1099, 2-{5-Chloro-2-[3-methoxy-7-(4-methyl-piperazin-1-yl)-6,7,8,9-tetrahydro-5H-benzocyclohepten-2-ylamino]-pyrimidin-4-ylamino}-N,N-dimethyl-benzenesulfonamide], in that order: 1 to 10 µM and under 0.1 µM.
Turning to `COc1cc2c(cc1Nc1ncc(Cl)c(Nc3ccccc3S(=O)(=O)C(C)C)n1)CCC(N1CCN(C)CC1)CC2` (centres unmarked) [Example 1100, 5-Chloro-N*2*-[3-methoxy-7-(4-methyl-piperazin-1-yl)-6,7,8,9-tetrahydro-5H-benzocyclohepten-2-yl]-N*4*-[2-(propane-2-sulfonyl)-phenyl]-pyrimidine-2,4-diamine], the 50% inhibitory concentration (IC50) in test [1] was 1 to 10 µM; in test [2], under 0.1 µM.
For `COc1cc2c(cc1Nc1ncc(Cl)c(Nc3ccccc3C(=O)OC(C)C)n1)CCN(CCCN(C)C)C(=O)C2` [Example 1111, 2-{5-Chloro-2-[3-(3-dimethylamino-propyl)-8-methoxy-2-oxo-2,3,4,5-tetrahydro-1H-benzo[d]azepin-7-ylamino]-pyrimidin-4-ylamino}-benzoic acid isopropyl ester], in that order: over 10 µM and under 0.1 µM.
For the compound `CNC(=O)CN1CCc2cc(Nc3ncc(Cl)c(N[C@@H]4CCCC[C@H]4NS(C)(=O)=O)n3)c(OC)cc2CC1` [Example 1112, 2-{7-[5-Chloro-4-((1R,2R)-2-methanesulfonylamino-cyclohexylamino)-pyrimidin-2-ylamino]-8-methoxy-1,2,4,5-tetrahydro-benzo[d]azepin-3-yl}-N-methyl-acetamide], the IC50 in test [1] is over 10 µM; in test [2], under 0.1 µM.
Turning to `CNC(=O)CN1CCc2cc(Nc3ncc(Cl)c(Nc4ccccc4C(=O)NC)n3)c(OC)cc2CC1` [Example 1114, 2-[5-Chloro-2-(8-methoxy-3-methylcarbamoylmethyl-2,3,4,5-tetrahydro-1H-benzo[d]azepin-7-ylamino)-pyrimidin-4-ylamino]-N-methyl-benzamide], the IC50 in test [1] is 1 to 10 µM; in test [2] it was under 0.1 µM.
Take `CCNC(=O)c1ccccc1Nc1nc(Nc2cc3c(cc2OC)CCN(CC(=O)NC)CC3)ncc1Cl` [Example 1115, 2-[5-Chloro-2-(8-methoxy-3-methylcarbamoylmethyl-2,3,4,5-tetrahydro-1H-benzo[d]azepin-7-ylamino)-pyrimidin-4-ylamino]-N-ethyl-benzamide]: the half-maximal inhibitory concentration (IC50) is 1 to 10 µM in test [1] and under 0.1 µM in test [2].
Take `CNC(=O)CN1CCc2cc(Nc3ncc(Cl)c(Nc4c(F)cccc4C(=O)NC)n3)c(OC)cc2CC1` [Example 1116, 2-[5-Chloro-2-(8-methoxy-3-methylcarbamoylmethyl-2,3,4,5-tetrahydro-1H-benzo[d]azepin-7-ylamino)-pyrimidin-4-ylamino]-3-fluoro-N-methyl-benzamide]: the concentration for half-maximal inhibition (IC50) in test [1] was 1 to 10 µM; in test [2], under 0.1 µM.
For `CNC(=O)CN1CCc2cc(Nc3ncc(Cl)c(NC4C5C=CC(C5)C4C(N)=O)n3)c(OC)cc2CC1` (stereo not drawn) [Example 1117, (2-exo,3-exo)-3-[5-Chloro-2-(8-methoxy-3-methylcarbamoylmethyl-2,3,4,5-tetrahydro-1H-benzo[d]azepin-7-ylamino)-pyrimidin-4-ylamino]-bicyclo[2.2.1]hept-5-ene-2-carboxylic acid amide], in that order: over 10 µM and under 0.1 µM.
For `CNC(=O)CN1CCc2cc(Nc3ncc(Cl)c(Nc4cc(Cl)ccc4OC)n3)c(OC)cc2CC1` [Example 1118, 2-{7-[5-Chloro-4-(5-chloro-2-methoxy-phenylamino)-pyrimidin-2-ylamino]-8-methoxy-1,2,4,5-tetrahydro-benzo[d]azepin-3-yl}-N-methyl-acetamide], in that order: over 10 µM and under 0.1 µM.
Regarding `CCNC(=O)c1cccc(F)c1Nc1nc(Nc2cc3c(cc2OC)CCN(CC(=O)N(C)C)CC3)ncc1Cl` [Example 1119, 2-[5-Chloro-2-(3-dimethylcarbamoylmethyl-8-methoxy-2,3,4,5-tetrahydro-1H-benzo[d]azepin-7-ylamino)-pyrimidin-4-ylamino]-N-ethyl-3-fluoro-benzamide], the figures for the half-inhibitory concentration (IC50) in test [1] and in test [2] were 1 to 10 µM and under 0.1 µM, respectively.
